According to patent publication US5457099A, “Carbostyril derivatives and antiallergic agent” (Sawai Pharmaceutical Co., Ltd., priority 1992, dated 1995):
Read-outs that look alike come from different tables or passages of the source.

Tests used:
[1] = test system: experimental asthma in guinea pigs; test: Inhibition of experimental asthma in guinea pigs; type: in vivo, Male Hartley guinea pigs; details: p.o., 1 mg/kg; significance vs. control: * p < 0.05, *** p < 0.001
Description: Male Hartley guinea pigs (N=10) were passively sensitized by intravenous injection of guinea pig antiovalbumin antiserum (titer for 3 hours PCA: 16000 times) diluted 5 times with physiological saline at a rate of 0.2 ml/animal. After 24 hours, the animal was fixed at dorsal position under urethane anesthetization and connected with a respirator (Harvard Model 683, respiratory volume: 4-6 ml/respiration; respiratory rate: 40/minute) via an incised tracheal cannula. Then 1 mg/kg Gallamine triethiodide was intravenously administered to stop the spontaneous respiration. […] Oxatomide was administered two hours before the challenge by antigen and the test drug (compound III-2) and Ketotifen were administered orally 1 hour before the challenge.

blood TXA2 [2] = test: Blood thromboxane (TX)A2 in sensitized guinea pigs; type: in vivo, Hartley guinea pigs
Description: (§1) Male Wistar rats of 7 weeks old and weighing about 280 g were passively sensitized with rat anti-ovalbumin anti-serum prepared according to the method of Tada and Okumura. Similarly, Hartley guinea pigs of 8 weeks old and weighing about 500 g were passively sensitized with guinea pig anti-ovalbumin antiserum prepared by immunizing with a mixed emulsion of ovalbumin and complete Freund's adjuvant (4.5:5.5) .
(§2) After 24 hours, trachea was incised under urethane ansthetiziation and cannulated with a respirator. Ovalbumin was intravenously administered to elicit the reaction while observing airway resistance according to a modified Konzett and Roessler method. Drugs were orally administered before 1 hour of elicitation of reaction. Blood samples were drawn from artery of rats and guinea pigs before the elicitaiton and after 8 minutes and 15 minutes, respectively, of the elicitation. The obtained blood samples were immediately mixed with 10 mM EDTA disodium and 0.4 mM indomethacin and centrifuged to separate blood plasma. TXB2, a metabolite of TXA2, in the blood plasma was partially purified by C18 column and determined by Enzyme Immunoassay Kit.

[3] = test system: experimental asthma in rats; test: Inhibition of experimental asthma in rats; type: in vivo, Wistar rats; details: Rattus norvegicus, po; for inhibition in vivo at 10 mg/kg: read-out: Inhibition of Experimental Asthma in rat
Description: (§3) Antiserum was prepared according to the method described in J. Immunol., 106, 1002 (1971). The titer (or highest effective dilution which gave a mean 48 hours PCA response of 5 mm in diameter in a rat) of the antiserum used was 1:200.
Wistar rats were passively sensitized by injection into caudal vein of 2.0ml/animal antiserum. After 24 hours, anaphylactic airway contraction caused by administration of antigen was measured by a modified Konzett and Roessler method. Briefly, the animal was fixed at dorsal position under urethane (1.5 g/kg, i.p.) anesthetization and connected with a respirator (Harvard Model 683, respiratory volume: 3-5 ml/respiration; respiratory rate: 72/minute) via an incised tracheal cannula. […] Oxatomide was administered two hours before the test, which is the optimal conditions according to Nippon Yakurigaku Zasshi (Japanese Journal of Pharmacology), 80, 261 (1982), and the other test drugs were orally administered at a rate of 0.2 ml/100 g body weight one hour before the test using a gastric tube. At the end of measurement, the trachea was blocked with a Kocher clamp and the measured values were expressed in percent taking the value at blockage as the maximum contraction (100%).

blood TXA2 [4] = test: Blood thromboxane (TX)A2 in sensitized rats; type: in vivo, Male Wistar rats; details: 1 mg/kg orally
Description: as §1, §2

Acute toxicity in mice = type: in vivo; details: mouse, in vivo, suspension in 0.5% carboxymethylcellulose sodium
Description: as §3
(§4) Male IcR mice (SPF) (Nippon SLC, weight:24-32 g) of 4 weeks age were fasted for 5 hours before the test. The test compound (III-2) was administered in the form of a suspension in 0.5% carboxymethylcellulose sodium salt (0.2 ml per 10 g). Survived and dead animals were autopsied at day 14 and immediately after the death, respectively.

Male IcR mice = test: Acute toxicity in mice; type: in vivo; details: p.o. and i.p.
Description: as §3, §4

[5] = test system: passive cutaneous anaphylaxis (PCA) reaction in rats; test: Inhibition of PCA reaction in rats; type: in vivo, Wistar rats; details: Rattus norvegicus, po; for inhibition in vivo at 10 mg/kg: read-out: Inhibition of PCA in rat
Description: as §3
Wistar rats were passively sensitized by intracutaneous injection of 0.05 ml antiserum diluted 75 times with physiological saline at two sheared sites of dorsal skin. After 48 hours, 0.5ml/animal of 1% Evans blue-physiological saline containing 2mg ovalbumin was administered into caudal vein to elicit the reaction. After 30 minutes, rats were sacrificed by decapitative bleeding and the dorsal skin was flayed. Dye stuff exuded at the reaction site was extracted according to the method described in Microbiol. Immunol., 22, 89 (1978). Briefly, two circular pieces of sensitized areas and one circular piece of unsensitized area (as the control) were punched at 1.8 cm diameter. The disks were placed in test tubes and treated overnight with 1 ml 1N-KOH at 37° C. Then 9ml 0.6N-H3 PO4 /acetone (5/13) was added and the mixture was thoroughly stirred and centrifuged (3000 rpm, 10 minutes). The supernatant was assayed for absorption at 620 nm. The amount of dye stuff was calculated from the standard curve previously prepared with known amounts of Evance blue. The conditions of sensitization and the amount of antigen were based on Nippon Yakurigaku Zasshi (Japanese Journal of Pharmacology),80, 261 (1982).
Test drugs and Oxatomide as a positive control were administered orally before 1 hour of elicitation through a gastric tube at 1 ml/200g body weight. In the test, groups of 6 to 7 animals and groups of 8 to 9 animals were used for test drugs and control, respectively.

O=c1cc(CCN2CCC(c3c[nH]c4ccccc34)CC2)c2ccccc2[nH]1 [III-2, 4-[2-[4-(1H-indol-3-yl)-1-piperidinyl]ethyl]-2-(1H)-quinolinone]
Inhibition % of experimental asthema in guinea pig [1]: 70.3%
Blood TXA2 before reaction (blood TXA2 [2]; 3 mg/kg orally 1 hour before elicitation, n = 5): 0.26 ± 0.05 ng/mL
Inhibition of blood TXA2 increase (blood TXA2 [2]; 3 mg/kg orally, n = 5): 94.4%
Blood TXA2 after reaction (blood TXA2 [2]; 3 mg/kg orally, n = 5, *p < 0.05 vs. control): 0.28 ng/mL
inhibition in vivo at 10 mg/kg [3]: 94.8%
inhibition in vivo at 0.1 mg/kg ([3]; other dosage/kg: 0.1 mg): 27.5%
inhibition in vivo at 0.3 mg/kg ([3]; other dosage/kg: 0.3 mg): 84.3%
inhibition in vivo at 1 mg/kg ([3]; other dosage/kg: 1 mg): 73%
inhibition in vivo at 3 mg/kg ([3]; other dosage/kg: 3 mg): 95.5%
Inhibition of blood TXA2 increase (blood TXA2 [4]; n = 11): 68.7%
Blood TXA2 after reaction (blood TXA2 [4]; n = 11, ***p < 0.001 vs. control): 0.45 ng/mL
LD50 at 336 h (Acute toxicity in mice; ip, read-out: LD50 for i.p.): > 1000 mg/kg
LD50 at 336 h (Acute toxicity in mice; po, read-out: LD50 for p.o.): > 3000 mg/kg
Acute toxicity (in words) (Male IcR mice): low toxity
inhibition in vivo at 10 mg/kg [5]: 67.4%
inhibition in vivo at 30 mg/kg ([5]; other dosage/kg: 30 mg): 74.6%

CN1CCC(=C2c3ccccc3CC(=O)c3sccc32)CC1 [Ketotifen]
Inhibition % of experimental asthema in guinea pig [1]: 50.4%

O=c1[nH]c2ccccc2n1CCCN1CCN(C(c2ccccc2)c2ccccc2)CC1 [Oxatomide, 1-[3-{4-(diphenylmethyl)-1-piperazinyl}propyl]-1,3-dihydro-2H-benzimidazol-2-one]
Inhibition % of experimental asthema in guinea pig [1]: 43.7%

O=c1cc(-c2ccccc2)c2ccccc2n1CCCN1CCC(c2c[nH]c3ccccc23)CC1 [VII-5, 1-[3-[4-(1H-indol-3-yl)-piperidinyl]propyl]-4-phenyl-2(1H)-quinolinone]
inhibition in vivo at 10 mg/kg [3]: 50.1%
inhibition in vivo at 10 mg/kg [5]: 6.7%

O=c1cc(-c2ccc(Cl)cc2)c2ccccc2n1CCCN1CCC(c2c[nH]c3ccccc23)CC1 [VII-6, 4-(4-chlorophenyl)-l-[3-[4-(1H-indol-3-yl)-1-piperidinyl]propyl]-2(1H)-quinolinone]
inhibition in vivo at 10 mg/kg [3]: 19.3%
inhibition in vivo at 10 mg/kg [5]: 9.4%

Cc1ccc(-c2cc(=O)n(CCCN3CCC(c4c[nH]c5ccccc45)CC3)c3ccccc23)cc1 [VII-7, 1-[3-[4-(1H-indol-3-yl)-piperidinyl]propyl]-4-(4-methylphenyl)-2(1H)-quinolinone]
inhibition in vivo at 10 mg/kg [3]: 13.1%
inhibition in vivo at 10 mg/kg [5]: 18.5%
